Literature values as cited in patent US6440942B1, “14-membered macrolides derived from leucomycins” (Enanta Pharmaceuticals, Inc., priority 2000, dated 2002).
Where two headings read alike, the source gives them in different places.

Key:
[1] = for in vitro potency relative to the parent compound: main metabolites of rokitamycin, parent compound = rokitamycin; for antimicrobial activity: josamycin metabolites isolated from urine and plasma of adults given oral josamycin
[2] = test system: Gram-positive bacteria
[3] = test system: Mycoplasma spp.
[4] = test system: Gram-negative bacteria
[5] = dogs; compared with other 4″-O-butyryl derivatives
[6] = monkeys; compared with other 4″-O-butyryl derivatives

4″-debutyryl leucomycin A5 [leucomycin V]
in vitro potency relative to the parent compound [1]: one-tenth

5-hydroxyjosamycin
antimicrobial activity [1]: poor

CCC(=O)O[C@H]1[C@H](C)O[C@@H](O[C@H]2[C@H](N(C)C)[C@@H](O)[C@H](O[C@H]3[C@@H](CC=O)C[C@@H](C)[C@@H](O)/C=C/C=C/C[C@@H](C)OC(=O)C[C@@H](O)[C@@H]3OC)O[C@@H]2C)C[C@@]1(C)O [Leucomycin A7]
in vitro potency relative to the parent compound [1]: one-half

COC1C(O)CC(=O)OC(C)CC=CC=CC(=O)C(C)CC(CC=O)C1OC1OC(C)C(OC2CC(C)(O)C(OC(=O)CC(C)C)C(C)O2)C(N(C)C)C1O (stereo not drawn) [Niddamycin]
antibacterial activity in vitro [2]: good | antibacterial activity in vitro [3]: good

COC1C(OC(C)=O)CC(=O)OC(C)CC=CC=CC(O)C(C)CC(CC=O)C1OC1OC(C)C(OC2CC(C)(O)C(O)C(C)O2)C(N(C)C)C1O (stereo not drawn) [desisovaleryl josamycin]
antimicrobial activity [1]: inactive

CCCC(=O)O[C@H]1[C@H](C)O[C@@H](O[C@H]2[C@H](N(C)C)[C@@H](O)[C@H](O[C@H]3[C@@H](CC=O)C[C@@H](C)[C@@H](O)/C=C/C=C/C[C@@H](C)OC(=O)C[C@@H](O)[C@@H]3OC)O[C@@H]2C)C[C@@]1(C)OC(=O)CC [rokitamycin, 3″-O-propionyl leucomycin A5]
activity among 4″-O-butyryl derivatives ([1]; compared with other 3″-O-acyl leucomycin A5 derivatives): most active | in vitro activity against Gram-negative bacteria relative to leucomycin A5, josamycin and midecamycin [4]: twice as high | serum levels [5]: highest | serum levels [6]: highest

demycarosyl josamycin
antimicrobial activity [1]: inactive

β-hydroxyisovaleryl josamycin
antimicrobial activity [1]: poor
